Experimental data reported in patent US10273222B2 (CELGENE QUANTICEL RESEARCH, INC., priority 2013, dated 2019).

Tests used:
Assay type in all cases: biochemical
JMJD2C = JMJD2C (Homo sapiens (Human), UniProt Q9H3R0); experiment: JMJD2C in vitro enzyme inhibition assay (TR-FRET)
FBXL10 = FBXL10 (Homo sapiens (Human), UniProt Q8NHM5); experiment: FBXL10 in vitro enzyme inhibition assay (AlphaScreen)
How it was run: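 AlphaScreen read-out of H3K36me1 product, detected with anti-H3K36me1 antibody plus streptavidin donor and Protein A acceptor beads (final 10 μg/ml) in 50 mM HEPES pH 7.3, 10 mM NaCl, 0.005% Brij35, 5 mM EDTA, 2 mg/ml BSA. Beads incubated 2 h to overnight at room temperature; IC50 derived from AlphaScreen signal.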

Jarid1B = Jarid1B (Homo sapiens (Human), UniProt Q9UGL1); experiment: Jarid1B in vitro enzyme inhibition assay (TR-FRET)
JMJD2A = JMJD2A (Homo sapiens (Human), UniProt O75164); experiment: JMJD2A in vitro enzyme inhibition assay (TR-FRET)
Experimental: This assay determines the ability of a test compound to inhibit Jarid1A, Jarid1B, JMJD2C, and JMJD2A demethylase activity. […] Baculovirus expressed JMJD2A (GenBank Accession #NM_014663, AA 1-350) was purchased from BPS Bioscience (Cat#50123).
The ability of test compounds to inhibit the activity of JMJD2A was determined in 384-well plate format under the following reaction conditions: 2 nM JMJD2A, 300 nM H3K9me3-biotin labeled peptide (Anaspec cat #64360), 2 μM alpha-ketoglutaric acid in assay buffer of 50 mM HEPES, pH7.3, 0.005% Brij35, 0.5 mM TCEP, 0.2 mg/ml BSA, 50 μM sodium L-ascorbate, and 2 μM ammonium iron(II) sulfate. Reaction product was determined quantitatively by TR-FRET after the addition of detection reagent Phycolink Streptavidin-allophycocyanin (Prozyme) and Europium-anti-di-methylated histone H3 lysine 9 (H3K9me2) antibody (PerkinElmer) in the presence of 5 mM EDTA in LANCE detection buffer (PerkinElmer) at a final concentration of 50 nM and 1 nM, respectively.
The assay reaction was initiated by the following: 2 μl of the mixture of 900 nM H3K9me3-biotin labeled peptide and 6 μM alpha-ketoglutaric acid with 2 μl of 11-point serial diluted inhibitor in 3% DMSO were added to each well of plate, followed by the addition of 2 μl of 6 nM JMJD2A to initiate the reaction. The reaction mixture was incubated at room temperature for 30 minutes, and terminated by the addition of 6 μl of 5 mM EDTA in LANCE detection buffer containing 100 nM Phycolink Streptavidin-allophycocyanin and 2 nM Europium-anti-H3K9me2 antibody. Plates were read by EnVisionMultilabel Reader in TR-FRET mode (excitation at 320 nm, emission at 615 nm and 665 nm) after 1 hour incubation at room temperature. A ratio was calculated (665/615) for each well and fitted to determine inhibition constant (IC50).

Jarid1A = Jarid1A (Homo sapiens (Human), UniProt P29375); experiment: Jarid1A in vitro enzyme inhibition assay (TR-FRET)
Source text: The enzymatic assay of Jarid1A activity is based upon Time Resolved-Fluorescence Resonance Energy Transfer (TR-FRET) detection.

JMJD2A, sequence (O75164 1-350): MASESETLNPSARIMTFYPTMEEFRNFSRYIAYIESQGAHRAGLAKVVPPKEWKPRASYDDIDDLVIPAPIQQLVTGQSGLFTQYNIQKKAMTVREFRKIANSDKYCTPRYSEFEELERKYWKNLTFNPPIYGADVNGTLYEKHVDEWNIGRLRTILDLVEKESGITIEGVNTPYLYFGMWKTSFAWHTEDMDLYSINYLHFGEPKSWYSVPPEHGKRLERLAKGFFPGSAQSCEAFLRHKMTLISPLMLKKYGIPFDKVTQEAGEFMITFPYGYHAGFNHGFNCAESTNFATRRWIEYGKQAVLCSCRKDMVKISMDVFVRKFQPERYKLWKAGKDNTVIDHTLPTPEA
Jarid1B, sequence (Q9UGL1 2-751): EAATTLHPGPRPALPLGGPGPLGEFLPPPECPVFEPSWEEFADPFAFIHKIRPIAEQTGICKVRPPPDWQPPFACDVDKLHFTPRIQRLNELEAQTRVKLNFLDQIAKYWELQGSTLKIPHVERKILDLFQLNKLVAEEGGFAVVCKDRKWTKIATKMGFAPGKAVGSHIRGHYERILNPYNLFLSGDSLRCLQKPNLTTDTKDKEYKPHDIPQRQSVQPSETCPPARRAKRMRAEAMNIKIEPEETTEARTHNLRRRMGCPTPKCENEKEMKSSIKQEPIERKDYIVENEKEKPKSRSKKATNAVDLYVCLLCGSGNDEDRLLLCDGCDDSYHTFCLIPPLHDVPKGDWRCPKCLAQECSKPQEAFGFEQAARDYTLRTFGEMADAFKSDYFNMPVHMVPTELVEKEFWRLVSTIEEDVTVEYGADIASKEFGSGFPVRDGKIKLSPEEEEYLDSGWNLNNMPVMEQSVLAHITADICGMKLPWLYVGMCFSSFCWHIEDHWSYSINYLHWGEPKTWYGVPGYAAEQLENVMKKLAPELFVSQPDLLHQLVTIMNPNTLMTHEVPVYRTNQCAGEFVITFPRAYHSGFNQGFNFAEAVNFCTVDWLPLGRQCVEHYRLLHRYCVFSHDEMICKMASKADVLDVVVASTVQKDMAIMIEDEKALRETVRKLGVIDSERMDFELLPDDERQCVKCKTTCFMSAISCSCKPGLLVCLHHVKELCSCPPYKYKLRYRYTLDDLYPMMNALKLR
FBXL10, sequence (Q8NHM5 1-650): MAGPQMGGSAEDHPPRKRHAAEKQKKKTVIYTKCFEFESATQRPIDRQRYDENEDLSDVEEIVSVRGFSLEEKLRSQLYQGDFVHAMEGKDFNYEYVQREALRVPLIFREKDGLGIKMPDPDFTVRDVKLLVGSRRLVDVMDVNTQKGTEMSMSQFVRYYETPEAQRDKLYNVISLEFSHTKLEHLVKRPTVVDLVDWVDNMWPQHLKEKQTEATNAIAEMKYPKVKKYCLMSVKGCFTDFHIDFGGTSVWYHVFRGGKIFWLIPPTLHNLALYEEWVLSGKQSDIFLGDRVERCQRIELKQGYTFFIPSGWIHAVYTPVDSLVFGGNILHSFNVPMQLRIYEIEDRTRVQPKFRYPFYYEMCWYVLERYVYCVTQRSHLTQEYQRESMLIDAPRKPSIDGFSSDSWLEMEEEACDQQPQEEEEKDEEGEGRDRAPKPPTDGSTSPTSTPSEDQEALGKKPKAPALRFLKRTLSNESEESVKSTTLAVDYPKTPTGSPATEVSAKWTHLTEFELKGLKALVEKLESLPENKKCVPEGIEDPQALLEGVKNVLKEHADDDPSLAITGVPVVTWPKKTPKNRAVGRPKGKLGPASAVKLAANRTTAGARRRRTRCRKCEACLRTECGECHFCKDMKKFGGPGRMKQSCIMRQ
Jarid1A, sequence (P29375 1-1090): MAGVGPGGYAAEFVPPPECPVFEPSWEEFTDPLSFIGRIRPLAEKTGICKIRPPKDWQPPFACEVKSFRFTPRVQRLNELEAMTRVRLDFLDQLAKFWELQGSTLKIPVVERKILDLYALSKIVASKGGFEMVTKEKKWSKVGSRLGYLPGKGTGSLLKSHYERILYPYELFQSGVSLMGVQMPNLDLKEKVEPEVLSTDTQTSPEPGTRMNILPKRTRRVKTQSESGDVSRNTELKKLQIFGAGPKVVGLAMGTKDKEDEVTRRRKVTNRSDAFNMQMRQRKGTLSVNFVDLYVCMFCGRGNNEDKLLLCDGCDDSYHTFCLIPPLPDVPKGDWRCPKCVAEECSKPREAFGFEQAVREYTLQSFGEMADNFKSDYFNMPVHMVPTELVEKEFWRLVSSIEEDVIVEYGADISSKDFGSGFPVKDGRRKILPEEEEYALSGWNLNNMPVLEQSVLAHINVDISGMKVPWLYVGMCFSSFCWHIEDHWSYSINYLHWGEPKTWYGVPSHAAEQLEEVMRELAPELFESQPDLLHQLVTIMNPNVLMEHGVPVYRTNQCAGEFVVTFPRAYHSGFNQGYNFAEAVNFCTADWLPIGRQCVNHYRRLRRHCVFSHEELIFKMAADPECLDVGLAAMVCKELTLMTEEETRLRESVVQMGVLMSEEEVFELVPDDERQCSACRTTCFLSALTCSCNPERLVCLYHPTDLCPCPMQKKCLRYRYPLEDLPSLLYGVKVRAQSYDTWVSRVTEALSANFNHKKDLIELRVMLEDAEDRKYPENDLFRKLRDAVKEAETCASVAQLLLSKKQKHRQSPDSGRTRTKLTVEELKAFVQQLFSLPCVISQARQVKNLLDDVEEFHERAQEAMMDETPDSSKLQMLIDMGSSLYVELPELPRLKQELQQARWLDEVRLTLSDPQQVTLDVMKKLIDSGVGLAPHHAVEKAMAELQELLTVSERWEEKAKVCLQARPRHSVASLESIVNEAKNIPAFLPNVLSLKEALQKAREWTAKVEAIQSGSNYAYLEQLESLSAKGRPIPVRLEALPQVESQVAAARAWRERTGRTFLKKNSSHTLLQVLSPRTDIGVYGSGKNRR
JMJD2C, sequence (Q9H3R0 2-372): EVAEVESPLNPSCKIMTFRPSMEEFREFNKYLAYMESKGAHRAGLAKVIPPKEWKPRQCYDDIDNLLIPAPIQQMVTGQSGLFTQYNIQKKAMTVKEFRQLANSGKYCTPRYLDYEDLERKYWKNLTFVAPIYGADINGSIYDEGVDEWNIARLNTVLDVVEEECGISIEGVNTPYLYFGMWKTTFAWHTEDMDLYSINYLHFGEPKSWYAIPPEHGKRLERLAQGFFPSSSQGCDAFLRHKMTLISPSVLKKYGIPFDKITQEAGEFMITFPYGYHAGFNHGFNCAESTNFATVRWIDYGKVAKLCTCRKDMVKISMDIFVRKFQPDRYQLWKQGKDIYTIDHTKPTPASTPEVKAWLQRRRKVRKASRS

Row | IC50 (JMJD2C) [nM] | IC50 (FBXL10) [nM] | IC50 (Jarid1B) [nM] | IC50 (JMJD2A) [nM] | IC50 (Jarid1A) [nM] | SMILES
1 | 1000 to 10000 | ≤ 100 | ≤ 100 | > 10000 | – | c1ccc2c(CCn3cnc(-c4cc(-c5nn[nH]n5)ccn4)c3)cccc2c1 [Example 142, 2-[1-(2-naphthalen-1-ylethyl)imidazol-4-yl]-4-(2H-tetrazol-5-yl)pyridine]
2 | 100 to 1000 | > 10000 | ≤ 100 | > 10000 | ≤ 100 | CN(CCn1cnc(-c2cc(C(=O)NC#N)ccn2)c1)CC1CC1 [Example 64, N-cyano-2-(1-{2-[(cyclopropylmethyl)(methyl)amino]ethyl}-1H-imidazol-4-yl)pyridine-4-carboxamide]
3 | 1000 to 10000 | ≤ 100 | 100 to 1000 | > 10000 | 100 to 1000 | CC(C)C(c1ccccc1)n1cnc(-c2cc(-c3nn[nH]n3)ccn2)c1 (stereo not shown) [Example 145, 2-[1-(2-methyl-1-phenylpropyl)imidazol-4-yl]-4-(2H-tetrazol-5-yl)pyridine]
4 | ≤ 100 | 100 to 1000 | ≤ 100 | ≤ 100 | ≤ 100 | CN(CCn1cnc(-c2cc(C(=O)O)ccn2)c1)CC1CC1 [Example 59, 2-(1-{2-[(cyclopropylmethyl)(methyl)amino]ethyl}-1H-imidazol-4-yl)pyridine-4-carboxylic acid]
5 | ≤ 100 | ≤ 100 | ≤ 100 | ≤ 100 | ≤ 100 | CN(CCn1cnc(-c2cc(C(=O)O)ccn2)c1)Cc1ccc(C(F)(F)F)cc1 [Example 68, 2-[1-[2-[methyl-[[4-(trifluoromethyl)phenyl]methyl]amino]ethyl]imidazol-4-yl]pyridine-4-carboxylic acid]
6 | ≤ 100 | ≤ 100 | ≤ 100 | ≤ 100 | ≤ 100 | Cc1ccc(CN(C)CCn2cnc(-c3cc(C(=O)O)ccn3)c2)cc1 [Example 67, 2-[1-[2-[methyl-[(4-methylphenyl)methyl]amino]ethyl]imidazol-4-yl]pyridine-4-carboxylic acid]
7 | 100 to 1000 | ≤ 100 | ≤ 100 | 100 to 1000 | ≤ 100 | CN(CCn1cnc(-c2cc(C(=O)O)ccn2)c1)c1ccc(Cl)cc1 [Example 87, 2-[1-[2-(4-chloro-N-methylanilino)ethyl]imidazol-4-yl]pyridine-4-carboxylic acid]
8 | ≤ 100 | ≤ 100 | ≤ 100 | ≤ 100 | ≤ 100 | Cc1cccc(CN(C)CCn2cnc(-c3cc(C(=O)O)ccn3)c2)c1 [Example 66, 2-[1-[2-[methyl-[(3-methylphenyl)methyl]amino]ethyl]imidazol-4-yl]pyridine-4-carboxylic acid]
9 | 1000 to 10000 | ≤ 100 | ≤ 100 | > 10000 | 100 to 1000 | Cn1cnc(-c2cc(C(=O)O)ccn2)c1-c1ccc(F)cc1OCC1CC1 [Example 120, 2-[5-[2-(cyclopropylmethoxy)-4-fluorophenyl]-1-methylimidazol-4-yl]pyridine-4-carboxylic acid]
10 | 100 to 1000 | ≤ 100 | ≤ 100 | ≤ 100 | ≤ 100 | O=C(O)c1ccnc(-c2cn(CC3CCCc4ccccc43)cn2)c1 (stereo not shown) [Example 116, 2-[1-(1,2,3,4-tetrahydronaphthalen-1-ylmethyl)imidazol-4-yl]pyridine-4-carboxylic acid]
11 | 1000 to 10000 | ≤ 100 | ≤ 100 | 100 to 1000 | ≤ 100 | O=C(O)c1ccnc(-c2cn(C3CCc4ccc(F)cc43)cn2)c1 (stereo not shown) [Example 109, 2-[1-(6-fluoro-2,3-dihydro-1H-inden-1-yl)imidazol-4-yl]pyridine-4-carboxylic acid]
12 | ≤ 100 | ≤ 100 | ≤ 100 | ≤ 100 | ≤ 100 | CN(CCn1cnc(-c2cc(C(=O)O)ccn2)c1)Cc1cccc(F)c1 [Example 69, 2-[1-[2-[(3-fluorophenyl)methyl-methylamino]ethyl]imidazol-4-yl]pyridine-4-carboxylic acid]
13 | ≤ 100 | ≤ 100 | ≤ 100 | ≤ 100 | ≤ 100 | CCN(CCn1cnc(-c2cc(C(=O)O)ccn2)c1)Cc1ccc(F)cc1 [Example 70, 2-[1-[2-[ethyl-[(4-fluorophenyl)methyl]amino]ethyl]imidazol-4-yl]pyridine-4-carboxylic acid]
14 | 1000 to 10000 | ≤ 100 | ≤ 100 | > 10000 | 100 to 1000 | Cn1cnc(-c2cc(-c3nn[nH]n3)ccn2)c1-c1ccc(F)cc1OCC1CC1 [Example 150, 2-[5-[2-(cyclopropylmethoxy)-4-fluorophenyl]-1-methylimidazol-4-yl]-4-(2H-tetrazol-5-yl)pyridine]
15 | 100 to 1000 | ≤ 100 | ≤ 100 | 100 to 1000 | ≤ 100 | CN(CCn1cnc(-c2cc(C(=O)O)ccn2)c1)c1ccccc1 [Example 58, 2-(1-{2-[methyl(phenyl)amino]ethyl}-1H-imidazol-4-yl)pyridine-4-carboxylic acid]
16 | 1000 to 10000 | ≤ 100 | 100 to 1000 | > 10000 | – | c1ccc2c(c1)CCCC2Cn1cnc(-c2cc(-c3nn[nH]n3)ccn2)c1 (stereo not shown) [Example 143, 2-[1-(1,2,3,4-tetrahydronaphthalen-1-ylmethyl)imidazol-4-yl]-4-(2H-tetrazol-5-yl)pyridine]
17 | 100 to 1000 | ≤ 100 | ≤ 100 | – | ≤ 100 | O=C(O)c1ccnc(-c2cn(CCN(Cc3ccc(Cl)c(Cl)c3)C3CC3)cn2)c1 [Example 86, 2-[1-[2-[cyclopropyl-[(3,4-dichlorophenyl)methyl]amino]ethyl]imidazol-4-yl]pyridine-4-carboxylic acid]
18 | ≤ 100 | ≤ 100 | ≤ 100 | – | ≤ 100 | CCc1ccccc1CNCCn1cnc(-c2cc(C(=O)O)ccn2)c1 [Example 80, 2-[1-[2-[(2-ethylphenyl)methylamino]ethyl]imidazol-4-yl]pyridine-4-carboxylic acid]
19 | ≤ 100 | ≤ 100 | ≤ 100 | – | ≤ 100 | CN1CCCC(Cn2cnc(-c3cc(C(=O)O)ccn3)c2)C1 (stereo not shown) [Example 55, 2-{1-[(1-methylpiperidin-3-yl)methyl]-1H-imidazol-4-yl}pyridine-4-carboxylic acid]
20 | ≤ 100 | ≤ 100 | ≤ 100 | – | ≤ 100 | O=C(O)c1ccnc(-c2cn(CCN3Cc4cccc(Cl)c4C3)cn2)c1 [Example 81, 2-[1-[2-(4-chloro-1,3-dihydroisoindol-2-yl)ethyl]imidazol-4-yl]pyridine-4-carboxylic acid]
21 | 1000 to 10000 | ≤ 100 | ≤ 100 | – | ≤ 100 | COCCCn1cnc(-c2cc(C(=O)O)ccn2)c1-c1ccc(Cl)c(F)c1 [Example 36, 2-[5-(4-chloro-3-fluorophenyl)-1-(3-methoxypropyl)-1H-imidazol-4-yl]pyridine-4-carboxylic acid]
22 | ≤ 100 | ≤ 100 | ≤ 100 | – | ≤ 100 | O=C(O)c1ccnc(-c2cn(CCN3Cc4ccc(F)cc4C3)cn2)c1 [Example 79, 2-[1-[2-(5-fluoro-1,3-dihydroisoindol-2-yl)ethyl]imidazol-4-yl]pyridine-4-carboxylic acid]
23 | 1000 to 10000 | 100 to 1000 | 100 to 1000 | – | 100 to 1000 | Cn1cnc(-c2cc(C(=O)O)ccn2)c1-c1ccc(OC(F)(F)F)cc1 [Example 13, 2-{1-methyl-5-[4-(trifluoromethoxy)phenyl]-1H-imidazol-4-yl}pyridine-4-carboxylic acid]
24 | ≤ 100 | ≤ 100 | ≤ 100 | – | ≤ 100 | O=C(O)c1ccnc(-c2cn(CCNCc3ccccc3Cl)cn2)c1 [Example 78, 2-[1-[2-[(2-chlorophenyl)methylamino]ethyl]imidazol-4-yl]pyridine-4-carboxylic acid]
25 | 100 to 1000 | 100 to 1000 | ≤ 100 | – | ≤ 100 | Cn1cnc(-c2cc(C(=O)O)ccn2)c1Br [Example 2, 2-(5-bromo-1-methyl-1H-imidazol-4-yl)pyridine-4-carboxylic acid]
26 | 1000 to 10000 | ≤ 100 | ≤ 100 | – | ≤ 100 | Cn1cnc(-c2cc(C(=O)O)ccn2)c1-c1ccc(Cl)cc1C(F)(F)F [Example 27, 2-{5-[4-chloro-2-(trifluoromethyl)phenyl]-1-methyl-1H-imidazol-4-yl}pyridine-4-carboxylic acid]
27 | ≤ 100 | ≤ 100 | ≤ 100 | – | ≤ 100 | O=C(O)c1ccnc(-c2cn(CCNCC3CC(F)(F)C3)cn2)c1 [Example 73, 2-[1-[2-[(3,3-difluorocyclobutyl)methylamino]ethyl]imidazol-4-yl]pyridine-4-carboxylic acid]
28 | 100 to 1000 | ≤ 100 | ≤ 100 | – | ≤ 100 | O=C(O)c1ccnc(-c2cn(CCc3cccc(Cl)c3)cn2)c1 [Example 113, 2-[1-[2-(3-chlorophenyl)ethyl]imidazol-4-yl]pyridine-4-carboxylic acid]
29 | 100 to 1000 | 100 to 1000 | ≤ 100 | – | ≤ 100 | Cn1cnc(-c2cc(C(=O)O)ccn2)c1-c1ccc(Cl)c(C(F)(F)F)c1 [Example 31, 2-{5-[4-chloro-3-(trifluoromethyl)phenyl]-1-methyl-1H-imidazol-4-yl}pyridine-4-carboxylic acid]
